Data taken from ChEMBL document CHEMBL3046966, “Structure and Fungicidal Activities of 2-Methoxyimino-N-methyl-2-[2-(substituted pyridyloxymethyl)phenyl]acetamide Derivatives” (1998).

Columns and labels:
Assay type in all cases: functional
Botrytis cinerea [1] = assay: Fungicidal activity against Botryotinia fuckeliana assessed as cucumber gray mold disease control at 2 ppm foliar application 24 hr after inoculation by curative manner
Botrytis cinerea [2] = assay: Fungicidal activity against Botryotinia fuckeliana assessed as cucumber gray mold disease control at 31.3 ppm foliar application 24 hr before inoculation by preventive manner
Podosphaera fuliginea [3] = assay: Fungicidal activity against Podosphaera fuligineas assessed as cucumber […] mildew disease control at 7.8 ppm foliar application 24 hr after inoculation by curative manner
[4] = test system: Blumeria graminis f. sp. tritici; assay: Fungicidal activity against Blumeria graminis f. sp. tritici assessed as wheat powdery mildew disease control at 7.8 ppm foliar application for 24 hr after inoculation by curative manner
Pyricularia oryzae [5] = assay: Fungicidal activity against Magnaporthe oryzae assessed as rice blast disease control at 31.3 ppm foliar application for 24 hr before inoculation by preventive manner
Podosphaera fuliginea [6] = assay: Fungicidal activity against Podosphaera fuligineas assessed as cucumber […] mildew disease control at 7.8 ppm foliar application 24 hr before inoculation by preventive manner
[7] = test system: Blumeria graminis f. sp. tritici; assay: Fungicidal activity against Blumeria graminis f. sp. tritici assessed as wheat powdery mildew disease control at 7.8 ppm foliar application for 24 hr before inoculation by preventive manner
[8] = test system: Pseudoperonospora cubensis; assay: Fungicidal activity against Pseudoperonospora cubensis assessed as cucumber downy mildew disease control at 31.3 ppm foliar application 24 hr after inoculation by preventive manner
[9] = test system: Pseudoperonospora cubensis; assay: Fungicidal activity against Pseudoperonospora cubensis assessed as cucumber downy mildew disease control at 7.8 ppm foliar application 24 hr after inoculation by curative manner
Pyricularia oryzae [10] = assay: Fungicidal activity against Magnaporthe oryzae assessed as rice blast disease control at 7.8 ppm foliar application for 24 hr after inoculation by curative manner
Pyricularia oryzae [11] = assay: Fungicidal activity against Magnaporthe oryzae assessed as rice blast disease control at 125 ppm foliar application for 24 hr before inoculation by preventive manner
Pyricularia oryzae [12] = assay: Fungicidal activity against Magnaporthe oryzae assessed as rice blast disease control at 125 ppm foliar application for 24 hr after inoculation by curative manner
Podosphaera fuliginea [13] = assay: Fungicidal activity against Podosphaera fuligineas assessed as cucumber […] mildew disease control at 2 ppm foliar application 24 hr after inoculation by curative manner
[14] = test system: Pseudoperonospora cubensis; assay: Fungicidal activity against Pseudoperonospora cubensis assessed as cucumber downy mildew disease control at 2 ppm foliar application 24 hr after inoculation by curative manner
[15] = test system: Blumeria graminis f. sp. tritici; assay: Fungicidal activity against Blumeria graminis f. sp. tritici assessed as wheat powdery mildew disease control at 125 ppm foliar application for 24 hr before inoculation by preventive manner
Botrytis cinerea [16] = assay: Fungicidal activity against Botryotinia fuckeliana assessed as cucumber gray mold disease control at 7.8 ppm foliar application 24 hr before inoculation by preventive manner
Podosphaera fuliginea [17] = assay: Fungicidal activity against Podosphaera fuligineas assessed as cucumber […] mildew disease control at 2 ppm foliar application 24 hr before inoculation by preventive manner
Botrytis cinerea [18] = assay: Fungicidal activity against Botryotinia fuckeliana assessed as cucumber gray mold disease control at 125 ppm foliar application 24 hr after inoculation by curative manner
[19] = test system: Blumeria graminis f. sp. tritici; assay: Fungicidal activity against Blumeria graminis f. sp. tritici assessed as wheat powdery mildew disease control at 125 ppm foliar application for 24 hr after inoculation by curative manner
Podosphaera fuliginea [20] = assay: Fungicidal activity against Podosphaera fuligineas assessed as cucumber […] mildew disease control at 125 ppm foliar application 24 hr after inoculation by curative manner
Podosphaera fuliginea [21] = assay: Fungicidal activity against Podosphaera fuligineas assessed as cucumber […] mildew disease control at 125 ppm foliar application 24 hr before inoculation by preventive manner
[22] = test system: Pseudoperonospora cubensis; assay: Fungicidal activity against Pseudoperonospora cubensis assessed as cucumber downy mildew disease control at 125 ppm foliar application 24 hr after inoculation by curative manner
Botrytis cinerea [23] = assay: Fungicidal activity against Botryotinia fuckeliana assessed as cucumber gray mold disease control at 7.8 ppm foliar application 24 hr after inoculation by curative manner
[24] = test system: Pseudoperonospora cubensis; assay: Fungicidal activity against Pseudoperonospora cubensis assessed as cucumber downy mildew disease control at 125 ppm foliar application 24 hr after inoculation by preventive manner
[25] = test system: Blumeria graminis f. sp. tritici; assay: Fungicidal activity against Blumeria graminis f. sp. tritici assessed as wheat powdery mildew disease control at 2 ppm foliar application for 24 hr before inoculation by preventive manner
[26] = test system: Blumeria graminis f. sp. tritici; assay: Fungicidal activity against Blumeria graminis f. sp. tritici assessed as wheat powdery mildew disease control at 31.3 ppm foliar application for 24 hr after inoculation by curative manner
Podosphaera fuliginea [27] = assay: Fungicidal activity against Podosphaera fuligineas assessed as cucumber […] mildew disease control at 31.3 ppm foliar application 24 hr before inoculation by preventive manner
Botrytis cinerea [28] = assay: Fungicidal activity against Botryotinia fuckeliana assessed as cucumber gray mold disease control at 125 ppm foliar application 24 hr before inoculation by preventive manner
[29] = test system: Pseudoperonospora cubensis; assay: Fungicidal activity against Pseudoperonospora cubensis assessed as cucumber downy mildew disease control at 31.3 ppm foliar application 24 hr after inoculation by curative manner
Pyricularia oryzae [30] = assay: Fungicidal activity against Magnaporthe oryzae assessed as rice blast disease control at 31.3 ppm foliar application for 24 hr after inoculation by curative manner
[31] = test system: Blumeria graminis f. sp. tritici; assay: Fungicidal activity against Blumeria graminis f. sp. tritici assessed as wheat powdery mildew disease control at 31.3 ppm foliar application for 24 hr before inoculation by preventive manner
Podosphaera fuliginea [32] = assay: Fungicidal activity against Podosphaera fuligineas assessed as cucumber […] mildew disease control at 31.3 ppm foliar application 24 hr after inoculation by curative manner
Pyricularia oryzae [33] = assay: Fungicidal activity against Magnaporthe oryzae assessed as rice blast disease control at 7.8 ppm foliar application for 24 hr before inoculation by preventive manner

Compound	Activity (Podosphaera fuliginea [3]) [%]	Activity [4] [%]	Activity (Pyricularia oryzae [5]) [%]	Activity [9] [%]	Activity (Pyricularia oryzae [11]) [%]	Activity [15] [%]	Activity (Botrytis cinerea [18]) [%]	Activity [19] [%]	Activity [24] [%]	Activity (Botrytis cinerea [28]) [%]	Activity (Pyricularia oryzae [30]) [%]	also measured
CNC(=O)/C(=N/OC)c1ccccc1COc1ncccc1Cl	90	90	90	90	–	–	–	–	–	–	–	Activity (Botrytis cinerea [1]): 90%; Activity (Botrytis cinerea [2]): 90%; Activity (Podosphaera fuliginea [6]): 90%; Activity [7]: 90%; Activity [8]: 90%; Activity (Pyricularia oryzae [10]): 90%
CNC(=O)/C(=N/OC)c1ccccc1COc1ccc(C(F)(F)F)c(OC)n1	–	90	–	–	90	90	90	–	–	–	–	Activity (Pyricularia oryzae [12]): 90%; Activity (Podosphaera fuliginea [13]): 90%; Activity [14]: 90%; Activity (Botrytis cinerea [16]): 90%; Activity (Podosphaera fuliginea [17]): 90%; Activity [8]: 90%
CNC(=O)/C(=N/OC)c1ccccc1COc1nc(Cl)c(Cl)c(C(F)(F)F)c1Cl	–	–	–	–	<90	<90	<90	<90	–	–	–	Activity (Podosphaera fuliginea [20]): 90%; Activity (Podosphaera fuliginea [21]): 90%; Activity [22]: 90%
CNC(=O)/C(=N/OC)c1ccccc1COc1cccc(Br)n1	90	–	90	90	–	–	–	–	90	–	–	Activity (Botrytis cinerea [2]): 90%; Activity (Botrytis cinerea [23]): 90%; Activity [25]: 90%; Activity [26]: 90%; Activity (Podosphaera fuliginea [27]): 90%; Activity (Pyricularia oryzae [10]): 90%
CNC(=O)/C(=N/OC)c1ccccc1COc1cccc(OC)n1	90	90	90	–	–	–	90	–	90	90	90	Activity [29]: 90%; Activity (Podosphaera fuliginea [6]): 90%; Activity [14]: 90%; Activity [31]: 90%
CNC(=O)/C(=N/OC)c1ccccc1COc1nc(OC)ccc1C(F)(F)F	–	–	–	90	90	–	<90	90	90	–	–	Activity (Botrytis cinerea [2]): 90%; Activity (Pyricularia oryzae [12]): 90%; Activity (Podosphaera fuliginea [13]): 90%; Activity (Podosphaera fuliginea [17]): 90%; Activity [31]: 90%
CNC(=O)/C(=N/OC)c1ccccc1COc1ccc(C(F)(F)F)cn1	90	90	90	90	–	–	–	–	–	–	90	Activity (Botrytis cinerea [1]): 90%; Activity [7]: 90%; Activity (Botrytis cinerea [16]): 90%; Activity [8]: 90%; Activity (Podosphaera fuliginea [27]): 90%
CNC(=O)/C(=N\OC)c1ccccc1COc1cccc(C(F)(F)F)n1	–	–	90	90	–	–	<90	–	90	90	90	Activity (Podosphaera fuliginea [32]): 90%; Activity [31]: 90%; Activity [26]: 90%; Activity (Podosphaera fuliginea [21]): 90%
CNC(=O)/C(=N/OC)c1ccccc1COc1cccc(SC)n1	–	–	–	90	<90	90	<90	<90	90	90	–	Activity (Podosphaera fuliginea [32]): 90%; Activity (Podosphaera fuliginea [27]): 90%
CNC(=O)/C(=N/OC)c1ccccc1COc1ccc(C(F)(F)F)c(NC)n1	90	–	–	90	<90	–	90	90	90	90	–	Activity (Podosphaera fuliginea [6]): 90%; Activity (Pyricularia oryzae [12]): <90%
CNC(=O)/C(=N/OC)c1ccccc1COc1cccc(Cl)n1	90	90	90	–	–	–	–	–	–	–	90	Activity (Botrytis cinerea [23]): 90%; Activity (Podosphaera fuliginea [6]): 90%; Activity [14]: 90%; Activity (Botrytis cinerea [16]): 90%; Activity [25]: 90%; Activity [8]: 90%
CNC(=O)/C(=N/OC)c1ccccc1COc1nc(OC(C)C)ccc1C(F)(F)F	90	–	90	90	–	–	<90	–	<90	90	90	Activity (Podosphaera fuliginea [6]): 90%; Activity [7]: 90%; Activity [26]: 90%
CNC(=O)/C(=N/OC)c1ccccc1COc1cc(C(F)(F)F)cc(Cl)n1	–	–	–	90	90	90	<90	90	<90	<90	–	Activity (Podosphaera fuliginea [20]): 90%; Activity (Pyricularia oryzae [12]): <90%; Activity (Podosphaera fuliginea [21]): 90%
CNC(=O)/C(=N/OC)c1ccccc1COc1ccc(C(F)(F)F)c(Cl)n1	–	90	–	–	–	–	–	–	–	–	–	Activity (Botrytis cinerea [23]): 90%; Activity (Pyricularia oryzae [33]): 90%; Activity [7]: 90%; Activity (Podosphaera fuliginea [13]): 90%; Activity [14]: 90%; Activity (Botrytis cinerea [16]): 90%; Activity [8]: 90%; Activity (Podosphaera fuliginea [27]): 90%; Activity (Pyricularia oryzae [10]): 90%
CNC(=O)/C(=N/OC)c1ccccc1COc1cccnc1Cl	–	–	–	–	<90	<90	–	<90	–	–	–	Activity (Botrytis cinerea [2]): 90%; Activity (Botrytis cinerea [23]): 90%; Activity (Podosphaera fuliginea [32]): 90%; Activity (Botrytis cinerea [16]): 90%; Activity (Podosphaera fuliginea [27]): 90%; Activity [22]: 90%
CNC(=O)/C(=N/OC)c1ccccc1COc1nc(Cl)c(C(F)(F)F)cc1C(F)(F)F	90	90	–	–	90	–	90	–	–	–	–	Activity (Botrytis cinerea [2]): 90%; Activity (Pyricularia oryzae [12]): <90%; Activity [14]: 90%; Activity [25]: 90%; Activity (Podosphaera fuliginea [17]): 90%; Activity [22]: <90%
CNC(=O)/C(=N/OC)c1ccccc1COc1cc(C(F)(F)F)ccn1	–	–	90	90	–	90	<90	–	<90	<90	90	Activity (Podosphaera fuliginea [20]): 90%; Activity [26]: 90%; Activity (Podosphaera fuliginea [21]): 90%
CNC(=O)/C(=N/OC)c1ccccc1COc1cc(C(F)(F)F)nc(C(F)(F)F)c1	–	–	–	–	<90	<90	–	<90	<90	<90	–	Activity (Podosphaera fuliginea [20]): <90%; Activity (Podosphaera fuliginea [21]): <90%; Activity [22]: 90%
CNC(=O)/C(=N\OC)c1ccccc1COc1ccccn1	–	–	–	–	<90	90	–	<90	–	<90	–	Activity (Podosphaera fuliginea [20]): <90%; Activity (Podosphaera fuliginea [21]): <90%; Activity [22]: <90%
CNC(=O)/C(=N/OC)c1ccccc1COc1cccc(OC(C)C)n1	–	–	90	–	–	90	<90	90	<90	90	90	Activity [29]: 90%; Activity (Podosphaera fuliginea [32]): 90%; Activity (Podosphaera fuliginea [27]): 90%
CNC(=O)/C(=N/OC)c1ccccc1COc1cccc(C(F)(F)F)n1	90	90	90	–	–	–	90	–	–	–	–	Activity (Botrytis cinerea [2]): 90%; Activity (Podosphaera fuliginea [6]): 90%; Activity [14]: 90%; Activity [25]: 90%; Activity [8]: 90%; Activity (Pyricularia oryzae [10]): 90%
